Key:
MCF-7 cells = test: Cell imaging under fluorescent microscope, MCF-7 cells; type: cell-based; settings: 200 nM
Procedure: Cell culture: HeLa cells were cultured in the MEM containing 10% FBS and 1% antibiotics (100 units/mL penicillin and 100 µg/mL streptomycin) in a 5% CO2 humidity incubator at 37° C. COS-7, MDA-MB-231, MCF-7, and MDCK-II cells were culture in the DMEM containing 10% FBS and antibiotics (100 units/mL penicillin and 100 µg/mL streptomycin) in a 5% CO2 humidity incubator at 37° C.
Cell imaging: two different kind of cells were grown overnight on a 35 mm petri dish with a cover slip. The live cells were incubated with 200 nM of TPE-IQ-2O for 1, 5, 10, and 20 mins. In a typical experiment, 2 μL of a 10 mM stock solution of TPE-IQ-2O in DMSO was diluted to 2 mL with cell culture medium, followed by further dilution to desired concentration. The cells were imaged under a fluorescent microscope (BX41 Microscope) using the same excitation and emission filters: excitation filter=400-440 nm, dichroic mirror=455 nm, and emission filter=465 nm long pass.
Two different kinds of cells were grown overnight on a 35 mm petri dish with a cover slip. The live cells were incubated with 200 nM of TPE-IQ-2O for 20, 10, and 5 mins. […] Condition: 200 nM (Filter: both close; Channel 5; EX: 400-440 nm; Exposure time: bright field: 1000 ms Fluorescence: 1000 ms.

HeLa cells = test: LDH cytotoxicity assay, HeLa cells; type: cell-based, human
Procedure: The HeLa and COS-7 cells were seeded in 96-well plate for 24 hrs. Then a different concentration of TPE-IQ-2O was added into each well. After 30 mins TPE-IQ-2O treatment in the dark, the dye was removed. Half of the cells were treated with white light irradiation for 90 mins and the rest of cells were kept in the dark. After another 24 hrs of incubation, 10 μL of 10× lysis buffer bromide was added to untreated cells as Maximum LDH Activity, while 10 μL ultrapure water was added to other wells. After incubation at 37° C. 5% CO2 for 45 mins, 50 μL of each well sample medium was transferred to a new 96-well plate, followed by addition of 50 μL reaction mixture. 50 μL stop solution were added into each well after 30 mins incubation protected from light. Then the absorbance was achieved by plate reader.

ROS = ROS generation under white light with H2DCF-DA indicator; settings: white light irradiation; dye 10 mM, H2DCF-DA 5 mM, ex 488 nm
Procedure: Fluorescence change of TPE-IQ-2O, H2DCF-DA (ROS indicator) and the mixture with different irradiation time of white light. […] Dye (TPE-IQ-2O): 10 mM; H2DCF-DA: 5 mM. Excitation wavelength: 488 nm.

Compound: CCC[n+]1cc2ccc(C(=C(c3ccc(OC)cc3)c3ccc(OC)cc3)c3ccccc3)cc2c(-c2ccccc2)c1-c1ccccc1 [TPE-IQ-2O, 6-(2,2-bis(4-methoxyphenyl)-1-phenylvinyl)-3,4-diphenyl-2-propylisoquinolin-2-ium]
- Fluorescence in co-culture (MCF-7 cells; MCF-7 and COS-7 co-cultured and stained together): fluorescence only from the MCF-7 cancer cell
- Fluorescence of stained cells (MCF-7 cells; MCF-7 stained alone, 5-20 min): fluorescent
- LDH cytotoxicity (HeLa cells; white light irradiation for 90 mins): HeLa cells decreased as the concentration of TPE-IQ-2O increased
- LDH cytotoxicity (HeLa cells; without white light irradiation): no obvious cytotoxicity
- ROS generation (H2DCF-DA fluorescence) (ROS): continuous ROS generation
